Here are results for 2 compounds from patent publication US10524455B2, “Methods and compositions for inducing hygienic behavior in honey bees” (University of North Carolina at Greensboro, priority 2015, dated 2020).

Assay [1] has as its system honey bees (single VSH colony). The assay is described as follows: Induced hygienic behavior study with synthesized P32 applied to cell caps by airbrushing. It counts as in vivo, honey bee. The conditions noted are these: for removal of pupae in treated brood cells compared to all control brood cells: roughly 10 ul per cell by airbrushing, 24 hours, controls: (Z)-16-dotriacontene at any concentration, hexane, no treatment; for dose dependence of removal: concentrations 1%, 0.3%, 0.1% by airbrushing. The method, then:
Methods: The dose dependent removal effects of (Z)-10-tritriacontene and (Z)-16-dotriacontene applied to wax caps of honey bee brood cells were measured repeatedly in a single VSH colony. (Z)-10-tritriacontene, along with (Z)-16-dotriacontene and hexane controls were applied to capped honey bee brood cells using a Paasche H-100D Single Action Airbrush & Compressor system, operating at 25 PSI. To control the amount of brood cells exposed to each chemical treatment (and thus the dose per cell) 3″ diameter PVC pipe pieces were inserted into a brood frames containing capped pupae. Thus, for each treatment and replicate, 2 mL of solution was applied to a single 3″-diameter section of brood comb by airbrushing. Since there are roughly 200 cells per 3″ diameter circle, this is roughly 10 ul solution per cell. Concentrations of 1%, 0.3%, and 0.1% (Z)-10-tritriacontene and (Z)-16-dotriacontene were tested. Sample sizes for (Z)-10-tritriacontene were 532, 420, and 282 cells for concentrations of 1%, 0.3%, and 0.1%, respectively. Sample sizes for (Z)-16-dotriacontene were 289, 296, and 311 for concentrations of 1%, 0.3%, and 0.1%, respectively. Sample sizes for the hexane control and no treatment control were 425 and 154, respectively. The location of all assays on frames was randomized. The frequency of uncapping and removal was recorded at four hours and twenty-four hours post treatment. Chi-square analysis with Bonferroni correction was used to compare hygienic removal and uncapping between treatments.

The subject of assay [2] is honey bees (MH and control colonies). Kind of assay: Induced hygienic behavior study with synthesized P32 applied to cell caps by syringe. It counts as in vivo, honey bee. The conditions noted are these: results discarded by the patent for methodological issues. The protocol: Methods: The pure P32 compound will be aliquoted and diluted in hexane. 1 ul of different dilutions will be applied onto larvae and/or caps of individual brood cells in three experimental hives. The VSH, MH, and control genotype (together, hereinafter, referred to as “line”) will be tested for their response. Hives from each source will be set up in an experimental apiary and standardized in size, brood, and resources. Brood frames containing uncapped 5th larval instars will be collected from each hive, and the location of the uncapped cells will be marked using a plastic transparency. Frames will be replaced into the hives, and cells that are capped within the next 16 hours will be recorded and used for the experiment. At day 4 post-capping, cells will be treated with hexane (a negative control) or one of the following dilutions of pure P32: 10^−1, 10^−3, 10^−5, 10^−7, 10^−9, 10^−11. Pin-killed brood will be used as a positive control. Twenty cells will receive each treatment in each colony for a total sample size of 1440 (20 cells×8 treatments×3 replicate hives×3 genotypes). Treatments will be randomly distributed across experimental combs and the location of each treatment recorded on a clear transparent sheet put over the comb. […] A new method for application of chemicals by airbrushing was also utilized to increase speed and quantity in chemical application (FIG. 12).

Turning to `CCCCCCCCC/C=C\CCCCCCCCCCCCCCCCCCCCCC` [(Z)-10-tritriacontene], the “removal of pupae in treated brood cells compared to all control brood cells” value in assay [1] (0.3% in hexane) and in assay [1] (1% in hexane) was “significantly greater” throughout. Also, the “dose dependence of removal” value in assay [1] is recorded as “removed in a dose-dependent manner”. The entries for the “removal of treated cells compared to hexane treated cells” value in assay [2] (MH colonies (both tested)) and in assay [2] (control colonies) were “significantly higher removal” and “no significant difference”, respectively.
For the compound `CCCCCCCCCCCCCCC/C=C\CCCCCCCCCCCCCCC` [(Z)-16-dotriacontene, reference compound], in assay [1], the “dose dependence of removal” value is listed as “removed in a dose-dependent manner”.
